The results in this text go back to paper PMC5872333, “Antifungal Potential of Host Defense Peptide Mimetics in a Mouse Model of Disseminated Candidiasis” (Journal of Fungi, 2018).

For data set [1], the system named is Candida albicans, strain SC5314. In words: MIC/MFC, CLSI broth microdilution, C. albicans. Format: cell-based. On the procedure: (§1) A standard invasive candidiasis strain of C. albicans SC5314 was used for peptide mimetic compounds screening. Non-albicans Candida species (NAC) C. dubliniensis (NCPF3949), C. glabrata (ATCC 90030), C. krusei (ATCC 6258), C. parapsilosis (ATCC 22019) and C. tropicalis (ATCC 750) (obtained from the laboratory of David Perlin, PHRI/Rutgers), were cultured on YPD (1% yeast extract, 2% peptone, 2% dextrose, pH 5.7) agar at 37°C and were used for all experimental studies. Fluconazole resistant clinical isolates of C. glabrata from five different patients and C. tropicalis from one patient were collected from the clinical microbiology laboratory, Shands Hospital, University of Florida, Gainesville, FL, USA.
(§2) Candida albicans […], NAC species and fluconazole-resistant clinical isolates of invasive candidiasis strains of C. glabrata and C. tropicalis were used for minimum inhibitory concentration (MIC) and minimum fungicidal concentration (MFC) studies of lead compounds. MICs were determined using the Clinical and Laboratory Standards Institute (CLSI) standard broth microdilution method. Suspensions of C. albicans were prepared by measuring optical density at 595 nm (OD595) of 1.0 in phosphate buffered saline (PBS). HDP mimetic compounds were diluted in 50 µL RPMI/MOPS cell culture medium in a 96-well plate (tissue culture treated; Costar, Corning Incorporated, Corning, NY, USA). To each well, a suspension (50 µL) of Candida was added, and then plate was incubated at 37 °C in a humidified chamber for a period of 24 h. To determine the MFC, a sample (100 µL) from the well defined as having the MIC and the wells with other three higher concentrations were plated onto YPD agar. Candida colonies were observed after 24 h. The MFC is defined as the lowest concentration of compound at which no colonies are observed. All MIC and MFC assays were performed in duplicate.
In general terms: Dilution methods test growth across graded concentrations, often in twofold steps.

For data set [2], the system named is C. tropicalis (ATCC 750). Nature of the data set: MIC broth microdilution, C. tropicalis. Type of data set: cell-based. Particulars: Candida tropicalis, ATCC750; read-out: NAC species MIC, C. tropicalis. How it is done:
as §1, §2

The subject of data set [3] is C. parapsilosis (ATCC 22019). In words: MIC broth microdilution, C. parapsilosis. Format: cell-based, Candida parapsilosis. Particulars: Lodderomyces parapsilosis, ATCC22019; read-out: NAC species MIC, C. parapsilosis. How it is done:
as §1, §2

Data set [4] deals with C. dubliniensis (NCPF3949). In words: MIC broth microdilution, C. dublinensis. Type of data set: cell-based. Particulars: Candida dubliniensis, read-out: NAC species MIC, C. dublinensis. On the procedure: as §1, §2
The test system of data set [5] is C. glabrata (ATCC 90030). Nature of the data set: MIC broth microdilution, C. glabrata. Format: cell-based, Candida glabrata. Particulars: Nakaseomyces glabratus, ATCC90030; read-out: NAC species MIC, C. glabrata. How it is done:
as §1, §2

For data set [6], the system named is C. krusei (ATCC 6258). Nature of the data set: MIC broth microdilution, C. krusei. Format: cell-based, Candida krusei. To be noted: Pichia kudriavzevii, ATCC6258; read-out: NAC species MIC, C. krusei. On the procedure: as §1, §2
A short description of data set [7]: Mammalian cell cytotoxicity, MTS viability assay, 3T3. Format: cell-based. Particulars: mouse, 3T3 fibroblasts (ATCC CRL-1658), 3T3 cells, 1 h exposure without serum. On the procedure:
Cytotoxicity (50% effective concentration (EC50)) was determined against mouse 3T3 fibroblasts (ATCC CRL-1658), OKF6/TERT-1 cells (oral keratinocytes), and human transformed liver HepG2 cells (ATCC HB-8065), using an MTS viability assay (Promega, Fitchburg, WI, USA). Growth medium was replaced with medium without serum, and eight 2-fold dilutions of compound were added. Following incubation for 1 h at 37 °C, compounds were removed, and medium containing serum was returned. Viability was determined using an MTS viability assay (CellTiter 96 aqueous nonradioactive cell proliferation assay, Promega).

Data set [8] has as its system whole human blood. In words: Hemolysis assay. Format: cell-based. To be noted: 0.5 h, 30 min, 37 °C. How it is done: Peptide mimetic compounds were tested in duplicate using a hemolysis assay previously published. Briefly, two-fold serial dilutions starting at 2 mg/mL in 150 mM NaCl (saline), 20% DMA (Alfa Aesar, Ward Hill, MA, US), or 10% kleptose in saline. 3% saponin (Fluka) in saline was used as a positive control. Each dilution of each compound (25 µL) was plated in a 96-well round bottomed plate and 25 µL of whole human blood (BIORECLAMATION, Westbury, NY, USA) was added to each sample and mixed for 10 second. The blood was Type O, from 2 males and 2 females, collected with potassium EDTA to prevent clotting. Plates were incubated on a shaker for 30 min at 37 °C, then centrifuged at 600× g for 5 min. 5 µL of the supernatant was transferred to a 96-well flat-bottomed plate with 200 µL H2O in each well and mixed for 5 min. Absorbance was read at 405 nm (Spectramax 250, Molecular Devices, San Jose, CA, USA). Percent hemolysis was then calculated as:
P = (OD405 (PMX compound) – OD405 (control))/(OD405 (Saponin) – OD405 (control))
Curves were fitted to report an HC50 (50% hemolysis) value for each compound: […]

Data set [9] in a line: Maximum tolerated dose (MTD) determination. To be noted: mouse, in vivo, sc. On the procedure: Female CD-1 mice (Charles River Laboratories), 8–10 weeks old, >20 g were used to determine the MTD. Mice were housed individually in stainless steel, wire-bottom cages to minimize access to urine and feces and fed Harlan Teklad Certified Global Diet® with tap water ad libitum. Mice were acclimated to the study room at least 3 days prior to dosing. Mice (3 per group) were dosed with a subcutaneous (SC) bolus injection beginning with 10 mg/kg of the test compound at a concentration of 2 mg/mL. Doses were lowered two-fold for subsequent groups to find the MTD. The dose volume was […], calculated using the weight of the animal on the day of injection. There were 3 dose events, with 2 days between each event. […] Body weights were obtained daily until the day of euthanization with a CO2 overdose. Any mortality during the study was also recorded. MTD data were obtained by Ricerca Biosciences, LLC, Concord, OH, USA. MTD of each HDP mimetic in CD-1 mice was determined and our studies utilized doses beginning with 0.5X MTD.

Data set [10] relates to C. albicans. Nature of the data set: Yeast membrane permeability, propidium iodide incorporation (flow cytometry). Type of data set: cell-based, Candida albicans. How it is done: C. albicans was suspended in RPMI/MOPS media to a total concentration of 2 × 10^6 cfu/mL. One ml aliquots of the C. albicans suspension were treated with each mimetic compound at a concentration of 32 µg/mL, using 95% ethanol as positive control. Samples were incubated with the mimetics at 30 °C for 0, 5, 15 and 30 min. After treatment, samples were centrifuged at 5000 rpm for 5 min. Supernatants were removed and pellets were washed twice with 1 mL of PBS. […] Samples were analyzed by flow cytometry (FACSCalibur, Becton Dickinson, Immunocytometry Systems, San Jose, CA, USA) to assess percent uptake of PI.
(In general: In flow cytometry, cells or beads pass a laser one at a time.)

For data set [11], the system named is C. albicans SC5314. In words: Immunosuppressed mouse model of invasive candidiasis, kidney burden. Format: in vivo, CD-1 mice. Particulars: 20 mg/kg by gavage 2 h after infection, 24 h, average of four independent experiments. On the procedure: C. albicans SC5314 were grown in YPD broth (Difco laboratories, Detroit, MI, USA) and stock cultures were stored at −80 °C. The frozen stocks were first grown on YPD plates and kept at 4 °C. Prior to each experiment, a stock inoculum suspension of Candida was prepared in YPD broth and incubated at 30 °C with shaking at 200 rpm for 12 h. The culture was washed twice with sterile 1X phosphate buffered saline (PBS), counted with a hemocytometer, and diluted with PBS to get the desired concentration of 3.5 × 10^5 cfu/mL. 100 µL was injected intravenously (IV) into each mouse via the tail vein. […]
Male CD-1 mice, 6–8 weeks old (20–22 g), were made neutropenic with two intraperitoneal (IP) injections of 150 mg/kg in 10 mL/kg cyclophosphamide four days and one day before inoculation. […] 2 h after C. albicans inoculation, mimetic compounds were injected subcutaneously (SC) at 0.5X of the MTD (determined by […] as described). Fluconazole (20 mg/kg) was administered to another group by oral gavage at 2 h post inoculation, as a positive control for the experiments, to confirm the ability to quantify an effect on kidney burden. […] Serial dilutions of the tissue homogenates were conducted, 0.1 mL aliquots were spread on YPD agar plates, and the plates incubated at 35 °C overnight. cfu/g kidneys were determined from colony counts. […]

Data set [12] relates to C. albicans. Nature of the data set: MIC assay in the presence of CaCl2 (divalent cation inhibition). Format: cell-based. Particulars: Candida albicans, 2.5 mM CaCl2. On the procedure: as §2, with “The MFC is defined as the lowest concentration of compound at which no colonies are observed. All MIC and MFC assays were performed in duplicate.” left out
To assess the effect of a divalent cations on the electrostatic interaction between mimetics and cell membrane of yeast, we used calcium chloride at concentrations of 2, 5, 7.5 and 10 […]. […] At each concentration of this cation, the MIC of mimetics were determined by the method described above.

Where [13] appears, read: C. albicans SC5314, 50% human serum, read-out: MIC+50% Human serum.
The mark [14] stands for this setting: C. albicans SC5314, without human serum.
The mark [15] stands for this setting: C. albicans SC5314, without human serum, 24 h, read-out: MIC.
The mark [16] stands for this setting: 32 µg/mL HDP mimetic, C. albicans.

Converted amounts (≈) assume the structure as drawn. Like-named read-outs stand apart in the source and are kept apart here.

Take `N=C(N)N1CCN(c2ccc(-c3cc(-c4ccc(N5CCN(C(=N)N)CC5)cc4)ncn3)cc2)CC1` [Compound 1]: the MIC in data set [1] (setting [13]) is 4 µg/mL (≈ 8.25 µM); in [1] (setting [15]), 4 µg/mL (≈ 8.25 µM); in [2], 4 to 8 µg/mL (≈ 8.25 to 16.5 µM); in data set [3], 4 to 8 µg/mL (≈ 8.25 to 16.5 µM); in data set [4], 8 µg/mL (≈ 16.5 µM); in [5], 4 µg/mL (≈ 8.25 µM). Besides, the MIC in [6] worked out at 32 µg/mL (≈ 66 µM). The same compound had a minimal fungicidal concentration (MFC) in data set [1] (setting [14]) of 8 µg/mL (≈ 16.5 µM). Besides, in data set [7], the EC50 at 1 h amounted to 311 µM. Besides, the EC50 in [8] was > 1790 µM. The MTD in data set [9] was determined as 10 mg/kg free base. Further, the “time to maximum incorporation of PI” value in data set [10] (setting [16]) came to 30 min.
In the case of `OC(Cn1cncn1)(Cn1cncn1)c1ccc(F)cc1F` [Fluconazole, fluconazole, reference compound], in [1] (setting [15]), the MIC worked out at 0.25 µg/mL (≈ 0.816 µM). Also, the “log10 reduction in kidney cfu” value in [11] was determined as 3 log.
On to `N=C(N)NCCCc1cc(CCCNC(=N)N)cc(NC(=O)c2ccc(C(=O)Nc3cc(CCCNC(=N)N)cc(CCCNC(=N)N)c3)cc2)c1` [Compound 2], for which the MIC came to 4 µg/mL (≈ 5.61 µM) in data set [1] (setting [13]); 4 µg/mL (≈ 5.61 µM) in [1] (setting [15]); 8 µg/mL (≈ 11.2 µM) in [2]; 1 µg/mL (≈ 1.4 µM) in [3]; 32 µg/mL (≈ 44.9 µM) in data set [4]; 8 µg/mL (≈ 11.2 µM) in [5]. Further, the results for the MIC in data set [6] and in data set [12] were 8 µg/mL (≈ 11.2 µM) and > 60 µg/mL, respectively. Besides, the minimal fungicidal concentration (MFC) in data set [1] (setting [14]) was found to be 16 µg/mL (≈ 22.4 µM). In data set [7], this compound came in with an EC50 at 1 h of 358 µM. In [8], the EC50 is > 1160 µM. The same compound gave an MTD in data set [9] of 10 mg/kg free base. The “time to maximum incorporation of PI” value in [10] (setting [16]) turned out to be 30 min.
Take `NCCCOc1cc(OCCCN)cc(-c2ccc3c(c2)c2cc(-c4cc(OCCCN)cc(OCCCN)c4)ccc2n3CCCN)c1` [Compound 4]: the MIC in data set [1] (setting [13]) was 4 µg/mL (≈ 5.98 µM); in data set [1] (setting [15]) it was 4 µg/mL (≈ 5.98 µM); in data set [2], 2 to 4 µg/mL (≈ 2.99 to 5.98 µM); in [3] it was 2 µg/mL (≈ 2.99 µM); in [4] it was 4 µg/mL (≈ 5.98 µM); in data set [5], 2 µg/mL (≈ 2.99 µM). Further, in data set [6], the MIC turned out to be 16 µg/mL (≈ 23.9 µM). Also, in data set [1] (setting [14]), the MFC was found to be 8 µg/mL (≈ 12 µM). This compound yielded an EC50 at 1 h in [7] of 436 µM. In addition, in data set [8], the EC50 is > 1170 µM. Further, the MTD in [9] worked out at 20 mg/kg free base. Moreover, the “rate of membrane activity (PI incorporation)” value in [10] (32 µg/mL HDP mimetic, C. albicans, comparison among compounds) was “most rapid membrane activity”.
In the case of `CCO` [95% ethanol, ethanol, reference compound], the “PI entered the cell” value in data set [10] (positive control, within 7 min) is 100%.

Broadly, the MIC is the lowest concentration that inhibits growth of the organism. The MFC is the lowest tested concentration that kills the fungus rather than only halting it. As usually defined, the EC50 is the concentration needed to bring the measured effect to its halfway point. Read a high EC50 as a need for much substance.
